Results taken from paper PMC6315989, “Red-Shifted FRET Biosensors for High-Throughput Fluorescence Lifetime Screening” (Biosensors, 2018).
Several values for one entry are separate records, joined by “and”; a condition that tells them apart may be missing. Equal entries are not always repeated.

Key:
[1] = target: T1, human cardiac calcium pump (SERCA2a) (Homo sapiens, UniProt P16615); assay: 2CS (O/M, OFP/MFP) red-shifted FRET fluorescence lifetime biosensor in living HEK293 cells; assay type: cell-based
Experimental: (§1) HEK293 (originally derived from human embryonic kidney) cells were maintained in phenol red-free DMEM from Gibco (Waltham, MA, USA) supplemented with 2 mM GlutaMAX (Gibco), 10% fetal bovine serum (FBS), from Atlanta Biologicals (Lawrenceville, GA, USA), and 1 IU/mL penicillin/streptomycin (Gibco) and grown at 37 °C with 5% CO2. HEK293 cell lines were used to generate stable clones overexpressing the FRET-based biosensors (containing both donor and acceptor) and corresponding donor-only and acceptor-only control cell lines. Three days prior to screening, the stable cell lines were expanded into T225 flasks from Corning Inc. (Corning, NY, USA). On each day of screening and FRET hit retesting, approximately 30 million cells were harvested by treatment of Tryple from Invitrogen (Carlsbad, CA, USA), washed three times in phosphate buffer solution (PBS) with no magnesium or calcium from Thermo Scientific (Waltham, MA, USA) by centrifugation at 300 g, filtered using 70 µm cell strainers (Corning), and diluted to 10^6 cells/mL using an automated countess cell counter (Invitrogen). On each day of screening, cell viability was assessed using the trypan blue assay and found to be above 95% viable. After resuspension and dilution in PBS, the cells were continuously and gently stirred using a magnetic stir bar at room temperature, keeping the cells in suspension and evenly distributed to avoid clumping. Subcellular localization of each biosensor was evaluated using an Olympus FluoView FV1000 IX2 (Tokyo, Japan) Inverted Confocal microscope with FLIM detector. GFP and RFP signals were assessed using 473 and 561 nm laser excitation, respectively. Cell nuclei were identified by staining with DAPI, using 405 nm laser excitation.
(§2) Cells and compound mixtures were dispensed into 1536-well flat, black-bottom polypropylene plates from Greiner (Kremsmünste, Austria). Compounds were dispensed using either an automated Echo acoustic liquid dispenser from Labcyte (Sunnyvale, CA, USA) or a Mosquito liquid dispenser from TTP Labtech (Melbourn, UK). Cells were dispensed at room temperature using a Multidrop Combi liquid dispenser from Thermo (Pittsburg, PA, USA), at a density of 10^6 cells/mL, either 30 or 120 min before screening. For screening, cells were dispensed into assay plates containing the 1280-compund LOPAC (Library of Pharmacologically Active Compounds, from Invitrogen), dissolved in DMSO. The final DMSO concentration was <1%, and control wells were prepared containing cells and matching [DMSO]. The same methods were applied for subsequent FRET testing of the reproducible hits identified in the pilot screen. Reproducible FRET hits for retesting were purchased from Tocris (Minneapolis, MN, USA) or Invitrogen (Carlsbad, CA, USA), depending on their availability.
(§3) An in-depth description of the fluorescence instrumentation has previously been described in detail and can be found in our previous publication. The current instrument has been updated to a high-density microplate format (1536 wells, 5 μL/well), acquiring data from a full plate in less than three minutes with lifetime measurement precision (standard deviation/mean) of 1% or better. Fluorescence decay waveforms (with upper-end specifications of […] resolution, 640 data points over 128 ns range) for FLT determination were detected directly as previously described, except that two different light sources were used for GFP and OFP. In both cases, fluorescence was excited with a pulsed microchip laser producing nanosecond-wide pulses. As previously described for GFP, a 473 nm laser (Bright Solutions, Via degli Artigiani, Italy) was used, delivering pulses of ~1 μJ energy at a 5 kHz repetition rate. For OFP, a 532 nm laser (Teem Photonics SNG-20F-100, Meylan, France) was used, delivering pulses of ~0.3 μJ energy at a 20 kHz repetition rate. […]

[2] = target: T1, human cardiac calcium pump (SERCA2a); assay: 2CS (G/R, GFP/RFP) FRET fluorescence lifetime biosensor in living HEK293 cells; assay type: cell-based; set-up: expressed in transfected cells
Experimental: as §1, §2, §3

SERCA1a = target: T2, SERCA1a (Oryctolagus cuniculus, UniProt P04191); assay: Enzyme-coupled NADH-linked SERCA ATPase activity assay, skeletal SR vesicles; assay type: biochemical, rabbit
T2 construct: sarcoplasmic reticulum vesicles prepared from rabbit skeletal muscle (SERCA1a); from tissue; host or cells: rabbit skeletal muscle sarcoplasmic reticulum vesicles
Experimental: (§4) Functional assays were performed using sarcoplasmic reticulum vesicles prepared from rabbit skeletal muscle (SERCA1a) and pig cardiac muscle (SERCA2a). An enzyme-coupled, NADH-linked ATPase assay was used to measure SERCA ATPase activity in 96-well microplates. Each well contained 50 mM MOPS (pH 7.0), 100 mM KCl, 5 mM MgCl2, 1 mM EGTA, 0.2 mM NADH, 1 mM phosphoenol pyruvate, 10 IU/mL of pyruvate kinase, 10 IU/mL of lactate dehydrogenase, 1 µM of the calcium ionophore A23187 from Sigma (St. Louis, MO, USA), and CaCl2 added to set free [Ca^2+] to 10 μM [23]; 4 μg/mL of SR vesicle, calcium, compound, and assay mix were incubated for 20 min. The assay was started upon the addition of ATP, at a final concentration of 5 mM (total volume to 200 μL), and the rate of decrease in NADH absorbance at 340 nm was determined using a SpectraMax Plus microplate spectrophotometer (Molecular Devices, Sunnyvale, CA, USA).

SERCA2a = target: T3, SERCA2a (Sus scrofa, UniProt P11607); assay: Enzyme-coupled NADH-linked SERCA ATPase activity assay, cardiac SR vesicles; assay type: biochemical, pig
T3 construct: rabbit skeletal muscle (SERCA1a) and pig cardiac muscle (SERCA2a); from tissue; host or cells: pig cardiac muscle sarcoplasmic reticulum vesicles
Experimental: as §4

[3] = system: donor-only controls and donor-acceptor "null" linker constructs; assay: Control biosensors (donor-only 1CS and donor-acceptor null linker) lifetime CRC in HEK293 cells; assay type: cell-based, human; conditions: G/R and O/M control cell lines
Experimental: HEK293 (originally derived from human embryonic kidney) cells were maintained in phenol red-free DMEM from Gibco (Waltham, MA, USA) supplemented with 2 mM GlutaMAX (Gibco), 10% fetal bovine serum (FBS), from Atlanta Biologicals (Lawrenceville, GA, USA), and 1 IU/mL penicillin/streptomycin (Gibco) and grown at 37 °C with 5% CO2. HEK293 cell lines were used to generate stable clones overexpressing the FRET-based biosensors (containing both donor and acceptor) and corresponding donor-only and acceptor-only control cell lines. Three days prior to screening, the stable cell lines were expanded into T225 flasks from Corning Inc. (Corning, NY, USA). […] On each day of screening, cell viability was assessed using the trypan blue assay and found to be above 95% viable. […] Subcellular localization of each biosensor was evaluated using an Olympus FluoView FV1000 IX2 (Tokyo, Japan) Inverted Confocal microscope with FLIM detector. GFP and RFP signals were assessed using 473 and 561 nm laser excitation, respectively. […]
An in-depth description of the fluorescence instrumentation has previously been described in detail and can be found in our previous publication. […] Fluorescence decay waveforms (with upper-end specifications of […] resolution, 640 data points over 128 ns range) for FLT determination were detected directly as previously described, except that two different light sources were used for GFP and OFP. In both cases, fluorescence was excited with a pulsed microchip laser producing nanosecond-wide pulses. […] These filters were selected to exclude acceptor fluorescence, as only the lifetime of the donor fluorescent protein is required to calculate FRET (Equation (1)). […] The observed time-resolved fluorescence waveform was analyzed as described previously, assuming a single-exponential decay, to determine the fluorescence lifetimes (FLT) for control samples containing donor only (τD) and FRET biosensor samples containing donor plus acceptor (τDA). FRET efficiency was calculated from (1) FRET=1−(τDA/τD) […]

[4] = known SERCA inhibitors, concentration-response curve, live HEK293 cells, 532 nm excitation, read-out: EC50 of lifetime change, h2CS2a (O/M)
[5] = known SERCA inhibitors, concentration-response curve, live HEK293 cells, 473 nm excitation, read-out: EC50 of lifetime change, h2CS2a (G/R)
[6] = LOPAC hits, 16-point CRC, Hill fit, apparent EC50 for FPL 64176 (no saturation), read-out: EC50 of lifetime change, 2CS (OFP/MFP)
[7] = LOPAC hits, 16-point CRC, Hill fit, apparent EC50 for FPL 64176 (no saturation), read-out: EC50 of lifetime change, 2CS (GFP/RFP)
[8] = mean ± SD, concentration-response curve

T2 sequence (P04191 1-994 isoform P04191-2): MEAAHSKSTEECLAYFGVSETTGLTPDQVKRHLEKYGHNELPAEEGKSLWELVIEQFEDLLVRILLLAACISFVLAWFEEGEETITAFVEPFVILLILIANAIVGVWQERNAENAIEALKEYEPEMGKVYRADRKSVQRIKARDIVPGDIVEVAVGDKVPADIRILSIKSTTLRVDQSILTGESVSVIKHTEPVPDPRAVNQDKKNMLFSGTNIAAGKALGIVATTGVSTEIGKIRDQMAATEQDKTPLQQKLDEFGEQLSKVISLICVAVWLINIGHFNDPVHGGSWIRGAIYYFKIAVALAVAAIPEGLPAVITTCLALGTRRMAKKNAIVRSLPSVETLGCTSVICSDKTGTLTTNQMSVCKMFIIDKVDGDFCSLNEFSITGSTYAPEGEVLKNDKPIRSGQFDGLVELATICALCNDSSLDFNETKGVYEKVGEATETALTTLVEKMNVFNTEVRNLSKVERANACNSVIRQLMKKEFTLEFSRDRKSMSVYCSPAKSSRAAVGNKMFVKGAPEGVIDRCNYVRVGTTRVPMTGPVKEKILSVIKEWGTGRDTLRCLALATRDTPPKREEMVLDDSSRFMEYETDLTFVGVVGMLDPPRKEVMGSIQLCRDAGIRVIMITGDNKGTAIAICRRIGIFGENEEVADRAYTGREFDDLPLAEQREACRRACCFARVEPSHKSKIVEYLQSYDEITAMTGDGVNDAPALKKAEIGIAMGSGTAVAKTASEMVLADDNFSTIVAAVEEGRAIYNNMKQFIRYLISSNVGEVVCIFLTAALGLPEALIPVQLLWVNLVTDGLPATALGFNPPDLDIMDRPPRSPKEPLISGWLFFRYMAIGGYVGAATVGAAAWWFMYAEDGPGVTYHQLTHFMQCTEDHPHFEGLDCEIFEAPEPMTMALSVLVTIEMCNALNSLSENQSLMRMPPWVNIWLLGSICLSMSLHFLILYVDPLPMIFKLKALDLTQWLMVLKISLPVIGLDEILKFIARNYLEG
T1 sequence (P16615 1-997 isoform P16615-2): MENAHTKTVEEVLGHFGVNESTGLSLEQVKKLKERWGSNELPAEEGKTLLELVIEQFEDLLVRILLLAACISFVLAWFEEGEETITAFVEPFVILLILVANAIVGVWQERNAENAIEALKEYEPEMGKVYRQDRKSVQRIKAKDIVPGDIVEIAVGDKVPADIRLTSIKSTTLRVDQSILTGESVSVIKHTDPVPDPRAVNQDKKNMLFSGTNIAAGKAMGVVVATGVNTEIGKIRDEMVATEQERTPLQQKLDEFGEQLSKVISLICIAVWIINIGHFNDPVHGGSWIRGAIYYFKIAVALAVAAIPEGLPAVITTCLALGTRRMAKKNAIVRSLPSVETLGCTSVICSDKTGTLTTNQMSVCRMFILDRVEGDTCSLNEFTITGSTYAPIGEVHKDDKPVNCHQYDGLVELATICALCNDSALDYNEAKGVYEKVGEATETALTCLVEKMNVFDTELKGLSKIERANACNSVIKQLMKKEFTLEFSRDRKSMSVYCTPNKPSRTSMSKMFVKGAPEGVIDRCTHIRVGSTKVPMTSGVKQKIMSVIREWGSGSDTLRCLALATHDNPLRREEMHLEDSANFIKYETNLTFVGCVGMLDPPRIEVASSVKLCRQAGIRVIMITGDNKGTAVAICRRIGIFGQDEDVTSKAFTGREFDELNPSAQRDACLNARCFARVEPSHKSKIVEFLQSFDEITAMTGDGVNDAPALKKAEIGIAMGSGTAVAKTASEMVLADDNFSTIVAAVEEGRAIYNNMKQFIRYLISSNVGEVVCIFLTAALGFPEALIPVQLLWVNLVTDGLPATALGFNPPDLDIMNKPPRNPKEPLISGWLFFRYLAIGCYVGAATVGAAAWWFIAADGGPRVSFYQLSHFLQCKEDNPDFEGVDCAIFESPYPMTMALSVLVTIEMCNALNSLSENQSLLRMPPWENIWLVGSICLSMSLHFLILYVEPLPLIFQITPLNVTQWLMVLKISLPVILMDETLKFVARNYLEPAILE
T3 sequence (P11607 1-997 isoform P11607-2): as the sequence (P16615 1-997 isoform P16615-2) above, with R371K, N403K, S538P, L570M, H576N, D667E, A713S, S865T, I889V, V963L counted along it

SMILES | EC50 [1, 4] [µM] | EC50 [2, 5] [µM] | EC50 [1, 6] | effect on Ca-dependent ATPase activity, SERCA1a (SERCA1a; CRC, free Ca2+ 10 μM) | effect on Ca-dependent ATPase activity, SERCA2a (SERCA2a; CRC, free Ca2+ 10 μM) | effect on FRET/lifetime of donor-only and null-linker controls [3] | EC50 [2, 7] | further results
CC(=O)C1=C(O)[C@@H]2[C@H]3c4c[nH]c5cccc(c45)C[C@H]3C(C)(C)N2C1=O [CPA, cyclopiazonic acid] | 0.626 | 0.715 |  |  |  |  |  | 
COC(=O)c1c(C)[nH]c(C)c1C(=O)c1ccccc1Cc1ccccc1 [FPL 64176] |  |  | 21.1 µM and 21 µM | biphasic ATPase activation | biphasic ATPase activation | no significant effect on FRET | 26.5 µM and 26 µM | FRET (lifetime) response in CRC, 2CS (O/M) ([1]; 16-point CRC): did not saturate at the highest concentrations; ATPase activation of SERCA2a in comparison to SERCA1a (EC50 and % change) (SERCA2a; cardiac versus skeletal isoform): significantly more effective; FRET (lifetime) response in CRC, 2CS (G/R) ([2]; 16-point CRC): did not saturate at the highest concentrations
Oc1ccc2ccccc2c1SSc1c(O)ccc2ccccc12 [IPA3] |  |  |  |  |  | significant concentration-dependent changes in fluorescence lifetime |  | concentration at which FRET abruptly and significantly decreased, 2CS (O/M) ([1]; non-sigmoidal CRC): approximately 10 μM; IC50 (SERCA1a; CRC, free Ca2+ 10 μM, read-out: apparent EC50 (IC50) of ATPase inhibition, SERCA1a): 9.5 µM; IC50 (SERCA2a; CRC, free Ca2+ 10 μM, read-out: apparent EC50 (IC50) of ATPase inhibition, SERCA2a): 8 µM; concentration at which FRET abruptly and significantly decreased, 2CS (G/R) ([2]; non-sigmoidal CRC): approximately 10 μM
c1ccc(C(NCc2cccnc2)(c2ccccc2)c2ccccc2)cc1 [UCL 2077, 3-(triphenylmethylaminomethyl)pyridine] |  |  | 7.2 µM | biphasic | biphasic | no significant effect on FRET | 13.8 µM | compound concentration at which ATPase activity peaked, SERCA1a (SERCA1a; biphasic CRC): around 3 micromolar; compound concentration at which ATPase activity peaked, SERCA2a (SERCA2a; biphasic CRC): around 3 micromolar
C/C=C(/C)C(=O)O[C@H]1C(C)=C2[C@H]([C@@H]1OC(=O)CCCCCCC)[C@@](C)(OC(C)=O)C[C@H](OC(=O)CCC)[C@@]1(O)[C@H]2OC(=O)[C@@]1(C)O [thapsigargin] | 0.0022 ± 0.0013 | 0.0044 ± 0.0012 |  |  |  |  |  | lifetime change Δτ at saturating compound, h2CS2a (O/M) [1, 8]: 258 ± 12 ps; lifetime change Δτ at saturating compound, h2CS2a (G/R) [2, 8]: 136 ± 10 ps
